Results published in the supplement of paper PMC13380429.

How the values were obtained:
Conditions in all cases: 72 h
HepG2 [1] = assay: drug sensitivity score (DSS) for viability; higher = more toxic; extreme values may be limits of the assay
Calu-3 [2] = assay: as above
Vero E6 [3] = assay: as above
U2OS [4] = assay: as above
Caco-2 [5] = assay: as above
HepG2 [6] = assay: cell viability relative to DMSO; higher = less toxic
Calu-3 [7] = assay: as above
Vero E6 [8] = assay: as above
U2OS [9] = assay: as above
Caco-2 [10] = assay: as above
HepG2 [11] = assay: relative viability EC50 (midpoint between 100% and the lowest measured viability); higher = less toxic
Calu-3 [12] = assay: as above
Vero E6 [13] = assay: as above
U2OS [14] = assay: as above
Caco-2 [15] = assay: as above

O=S(=O)(O)CCSSCCS(=O)(=O)O [dimesna]
drug sensitivity score (HepG2 [1]): 0
drug sensitivity score (Calu-3 [2]): 1.4
drug sensitivity score (Vero E6 [3]): 0
drug sensitivity score (U2OS [4]): 0
drug sensitivity score (Caco-2 [5]): 0
cell viability (HepG2 [6]; 1 nM): 94.6%
cell viability (HepG2 [6]; 10 nM): 98.8%
cell viability (HepG2 [6]; 100 nM): 102%
cell viability (HepG2 [6]; 1000 nM): 98.7%
cell viability (HepG2 [6]; 10000 nM): 97.7%
cell viability (Calu-3 [7]; 1 nM): 96.8%
cell viability (Calu-3 [7]; 10 nM): 96.3%
cell viability (Calu-3 [7]; 100 nM): 85.7%
cell viability (Calu-3 [7]; 1000 nM): 90.7%
cell viability (Calu-3 [7]; 10000 nM): 86.2%
cell viability (Vero E6 [8]; 1 nM): 101%
cell viability (Vero E6 [8]; 10 nM): 108%
cell viability (Vero E6 [8]; 100 nM): 104%
cell viability (Vero E6 [8]; 1000 nM): 98.5%
cell viability (Vero E6 [8]; 10000 nM): 100%
cell viability (U2OS [9]; 1 nM): 104%
cell viability (U2OS [9]; 10 nM): 98.7%
cell viability (U2OS [9]; 100 nM): 103%
cell viability (U2OS [9]; 1000 nM): 104%
cell viability (U2OS [9]; 10000 nM): 101%
cell viability (Caco-2 [10]; 1 nM): 95.7%
cell viability (Caco-2 [10]; 10 nM): 99.5%
cell viability (Caco-2 [10]; 100 nM): 101%
cell viability (Caco-2 [10]; 1000 nM): 98.5%
cell viability (Caco-2 [10]; 10000 nM): 92.5%
relative viability EC50 (HepG2 [11]): > 10 µM
relative viability EC50 (Calu-3 [12]): > 10 µM
relative viability EC50 (Vero E6 [13]): > 10 µM
relative viability EC50 (U2OS [14]): > 10 µM
relative viability EC50 (Caco-2 [15]): > 10 µM

CCCCc1cc2ccccc2c(OCCN(C)C)n1 [dimethisoquin]
drug sensitivity score (HepG2 [1]): 0
drug sensitivity score (Calu-3 [2]): 0
drug sensitivity score (Vero E6 [3]): 0
drug sensitivity score (U2OS [4]): 0
drug sensitivity score (Caco-2 [5]): 0
cell viability (HepG2 [6]; 1 nM): 103%
cell viability (HepG2 [6]; 10 nM): 104%
cell viability (HepG2 [6]; 100 nM): 109%
cell viability (HepG2 [6]; 1000 nM): 91.2%
cell viability (HepG2 [6]; 10000 nM): 102%
cell viability (Calu-3 [7]; 1 nM): 104%
cell viability (Calu-3 [7]; 10 nM): 97.7%
cell viability (Calu-3 [7]; 100 nM): 92.3%
cell viability (Calu-3 [7]; 1000 nM): 95.6%
cell viability (Calu-3 [7]; 10000 nM): 98.3%
cell viability (Vero E6 [8]; 1 nM): 106%
cell viability (Vero E6 [8]; 10 nM): 97.5%
cell viability (Vero E6 [8]; 100 nM): 97.3%
cell viability (Vero E6 [8]; 1000 nM): 96.1%
cell viability (Vero E6 [8]; 10000 nM): 94.3%
cell viability (U2OS [9]; 1 nM): 98.9%
cell viability (U2OS [9]; 10 nM): 106%
cell viability (U2OS [9]; 100 nM): 102%
cell viability (U2OS [9]; 1000 nM): 105%
cell viability (U2OS [9]; 10000 nM): 91.3%
cell viability (Caco-2 [10]; 1 nM): 107%
cell viability (Caco-2 [10]; 10 nM): 102%
cell viability (Caco-2 [10]; 100 nM): 91.5%
cell viability (Caco-2 [10]; 1000 nM): 105%
cell viability (Caco-2 [10]; 10000 nM): 97.6%
relative viability EC50 (HepG2 [11]): > 10 µM
relative viability EC50 (Calu-3 [12]): > 10 µM
relative viability EC50 (Vero E6 [13]): > 10 µM
relative viability EC50 (U2OS [14]): > 10 µM
relative viability EC50 (Caco-2 [15]): > 10 µM

CN(C)CCOC(C)(c1ccccc1)c1ccccn1 (stereo not given) [doxylamine]
drug sensitivity score (HepG2 [1]): 0
drug sensitivity score (Calu-3 [2]): 0
drug sensitivity score (Vero E6 [3]): 0
drug sensitivity score (U2OS [4]): 0
drug sensitivity score (Caco-2 [5]): 0
cell viability (HepG2 [6]; 1 nM): 102%
cell viability (HepG2 [6]; 10 nM): 101%
cell viability (HepG2 [6]; 100 nM): 101%
cell viability (HepG2 [6]; 1000 nM): 106%
cell viability (HepG2 [6]; 10000 nM): 99.8%
cell viability (Calu-3 [7]; 1 nM): 98.6%
cell viability (Calu-3 [7]; 10 nM): 105%
cell viability (Calu-3 [7]; 100 nM): 98.6%
cell viability (Calu-3 [7]; 1000 nM): 106%
cell viability (Calu-3 [7]; 10000 nM): 108%
cell viability (Vero E6 [8]; 1 nM): 99.5%
cell viability (Vero E6 [8]; 10 nM): 102%
cell viability (Vero E6 [8]; 100 nM): 100%
cell viability (Vero E6 [8]; 1000 nM): 100%
cell viability (Vero E6 [8]; 10000 nM): 99.6%
cell viability (U2OS [9]; 1 nM): 104%
cell viability (U2OS [9]; 10 nM): 100%
cell viability (U2OS [9]; 100 nM): 103%
cell viability (U2OS [9]; 1000 nM): 98.4%
cell viability (U2OS [9]; 10000 nM): 101%
cell viability (Caco-2 [10]; 1 nM): 106%
cell viability (Caco-2 [10]; 10 nM): 97.6%
cell viability (Caco-2 [10]; 100 nM): 98.6%
cell viability (Caco-2 [10]; 1000 nM): 98.1%
cell viability (Caco-2 [10]; 10000 nM): 104%
relative viability EC50 (HepG2 [11]): > 10 µM
relative viability EC50 (Calu-3 [12]): > 10 µM
relative viability EC50 (Vero E6 [13]): > 10 µM
relative viability EC50 (U2OS [14]): > 10 µM
relative viability EC50 (Caco-2 [15]): > 10 µM
